Measurements published in PubChem BioAssay AID248 (DTP/NCI, 2004).
“And” between values parts separate entries of the source, which are not always exact repeats. Equal values may be shown once. Inconclusive results and toxic doses are left out. Rule as the data show it: active = T/C of 150% or more; inactive = T/C below 125%.

Test system: L1210 leukemia ip in BDF1 mice, survival T/C
Assay: NCI In Vivo Anticancer Drug Screen. Data for tumor model L1210 Leukemia (intraperitoneal) in B6D2F1 (BDF1) mice
Settings: endpoint: mean survival time, higher = longer survival
Procedure, shortened: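 Mice bearing the transplanted tumor received compound or vehicle. Survival of the treated group was divided by that of the vehicle-treated control group to give the ratio.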

[1] = dose: 100.0 mg/kg/injection, schedule: Q04DX003 (ip), vehicle: Klucel (hydroxypropylcellulose) (HPC)
[2] = dose: 200.0 mg/kg/injection, schedule: Q04DX003 (ip), vehicle: Klucel (hydroxypropylcellulose) (HPC)
[3] = dose: 400.0 mg/kg/injection, schedule: Q04DX003 (ip), vehicle: Klucel (hydroxypropylcellulose) (HPC)
[4] = dose: 100.0 mg/kg/injection, schedule: Q04DX003 (ip), vehicle: saline with Tween-80
[5] = dose: 200.0 mg/kg/injection, schedule: Q04DX003 (ip), vehicle: saline with Tween-80
[6] = dose: 400.0 mg/kg/injection, schedule: Q04DX003 (ip), vehicle: saline with Tween-80
[7] = dose: 100.0 mg/kg/injection, schedule: Q04DX003 (ip), vehicle: saline
[8] = dose: 200.0 mg/kg/injection, schedule: Q04DX003 (ip), vehicle: saline
[9] = dose: 100.0 mg/kg/injection, schedule: Q01DX009 (ip), vehicle: Klucel (hydroxypropylcellulose) (HPC)
[10] = dose: 200.0 mg/kg/injection, schedule: Q01DX009 (ip), vehicle: Klucel (hydroxypropylcellulose) (HPC)
[11] = dose: 100.0 mg/kg/injection, schedule: Q01DX009 (ip), vehicle: saline with Tween-80
[12] = dose: 200.0 mg/kg/injection, schedule: Q01DX009 (ip), vehicle: saline with Tween-80

Measured: T/C

Cc1ccc(/C=C\C(=O)c2ccccc2)cc1
inactive: [1] 100 % of control | [2] 96 % of control | [3] 102 % of control

Cc1nc(N)[nH]c(=O)c1CCCNS(=O)(=O)c1ccc(CN)cc1
inactive: dose: 100.0 mg/kg/injection, schedule: Q01DX001 (ip), vehicle: saline 115 % of control | dose: 200.0 mg/kg/injection, schedule: Q01DX001 (ip), vehicle: saline 98 % of control | dose: 400.0 mg/kg/injection, schedule: Q01DX001 (ip), vehicle: saline 101 % of control

CN(C)C(=O)Nc1cccc(OC(=O)NC2CCCCCCC2)c1
inactive: [4] 91 % of control | [5] 100 % of control | [6] 96 % of control

C[n+]1cc2c3ccccc3c(N)cc2c2ccccc21
inactive: dose: 6.25 mg/kg/injection, schedule: Q01DX009 (ip), vehicle: water 114 % of control | dose: 12.5 mg/kg/injection, schedule: Q01DX009 (ip), vehicle: water 118 % of control | dose: 25.0 mg/kg/injection, schedule: Q01DX009 (ip), vehicle: water 117 % of control | dose: 25.0 mg/kg/injection, schedule: Q04DX003 (ip), vehicle: water 118 % of control | dose: 50.0 mg/kg/injection, schedule: Q01DX009 (ip), vehicle: water 90 % of control | dose: 50.0 mg/kg/injection, schedule: Q04DX003 (ip), vehicle: water 98 % of control | dose: 100.0 mg/kg/injection, schedule: Q04DX003 (ip), vehicle: water 93 % of control and 107 % of control

CNc1c(C)n(C)n(-c2ccccc2)c1=O.[Cl][Pd]([Cl])([Cl])[Cl]
inactive: dose: 50.0 mg/kg/injection, schedule: Q04DX003 (ip), vehicle: saline 106 % of control | [7] 111 % of control | [8] 100 % of control

COc1ccc(C(=O)NN2C(N)=NC(N)=NC2(C)C)cc1
inactive: [7] 94 % of control | [8] 97 % of control

CN1CCCN(C(c2ccccc2)c2ccc(Cl)cc2)CC1 (stereo not given)
inactive: dose: 7.81 mg/kg/injection, schedule: Q01DX009 (ip), vehicle: saline 96 % of control | dose: 15.62 mg/kg/injection, schedule: Q01DX009 (ip), vehicle: saline 105 % of control | dose: 31.25 mg/kg/injection, schedule: Q01DX009 (ip), vehicle: saline 96 % of control

CNO
inactive: [9] 100 % of control | [1] 95 % of control | [10] 97 % of control | [2] 95 % of control | [3] 109 % of control

CC(C)=CCNC(=O)NS(=O)(=O)c1ccc(Cl)cc1
inactive: [1] 103 % of control | [2] 103 % of control | [3] 100 % of control

CCCCCCCCC(=O)NCc1ccco1
inactive: [9] 92 % of control | [10] 91 % of control | dose: 400.0 mg/kg/injection, schedule: Q01DX009 (ip), vehicle: Klucel (hydroxypropylcellulose) (HPC) 94 % of control

O=C(N/N=C\c1c[nH]c2ccccc12)N/N=C/c1c[nH]c2ccccc12
inactive: dose: 100.0 mg/kg/injection, schedule: Q04DX002 (ip), vehicle: saline with Tween-80 97 % of control | dose: 200.0 mg/kg/injection, schedule: Q04DX002 (ip), vehicle: saline with Tween-80 104 % of control | dose: 400.0 mg/kg/injection, schedule: Q04DX002 (ip), vehicle: saline with Tween-80 97 % of control

O=C(Nc1cccc(C(=O)O)c1)Nc1ccc(Cl)c(C(F)(F)F)c1
inactive: [11] 87 % of control | [12] 100 % of control

C=C[N+](C)(C)C
inactive: dose: 5.0 mg/kg/injection, schedule: Q01DX001 (ip), vehicle: saline 100 % of control | dose: 10.0 mg/kg/injection, schedule: Q01DX001 (ip), vehicle: saline 107 % of control | dose: 20.0 mg/kg/injection, schedule: Q01DX001 (ip), vehicle: saline 103 % of control | dose: 40.0 mg/kg/injection, schedule: Q01DX001 (ip), vehicle: saline 103 % of control

CN1CCN(Cc2nc3cccc4c3c([n+]2[O-])-c2ccccc2-4)CC1
inactive: dose: 12.5 mg/kg/injection, schedule: Q01DX009 (ip), vehicle: saline with Tween-80 101 % of control | dose: 25.0 mg/kg/injection, schedule: Q01DX009 (ip), vehicle: saline with Tween-80 105 % of control | dose: 50.0 mg/kg/injection, schedule: Q01DX009 (ip), vehicle: saline with Tween-80 103 % of control | [11] 114 % of control | [12] 123 % of control

C#CCN1CCC2=C(C1)c1c(O)cc(C(C)C(C)CCCCC)cc1OC2(C)C (stereo not given)
inactive: dose: 100.0 mg/kg/injection, schedule: Q01DX001 (ip), vehicle: Klucel (hydroxypropylcellulose) (HPC) 95 % of control | dose: 200.0 mg/kg/injection, schedule: Q01DX001 (ip), vehicle: Klucel (hydroxypropylcellulose) (HPC) 92 % of control | dose: 400.0 mg/kg/injection, schedule: Q01DX001 (ip), vehicle: Klucel (hydroxypropylcellulose) (HPC) 103 % of control

O=C1CN(C(=O)CN2C(=O)c3ccccc3C2=O)C2(CCCCC2)O1
inactive: dose: 66.0 mg/kg/injection, schedule: Q04DX003 (ip), vehicle: saline sonified 94 % of control | dose: 150.0 mg/kg/injection, schedule: Q04DX003 (ip), vehicle: saline sonified 101 % of control | dose: 200.0 mg/kg/injection, schedule: Q04DX003 (ip), vehicle: saline sonified 95 % of control | dose: 400.0 mg/kg/injection, schedule: Q04DX003 (ip), vehicle: saline sonified 97 % of control

O=C1CSC(=S)N1c1cccc(C(F)(F)F)c1
inactive: [4] 108 % of control | [5] 101 % of control | [6] 104 % of control

O=C(O)C(Br)CO (stereo not given) (tested in a mixture with another compound)
inactive: dose: 100.0 mg/kg/injection, schedule: Q01DX001 (ip), vehicle: acetone 93 % of control | dose: 200.0 mg/kg/injection, schedule: Q01DX001 (ip), vehicle: acetone 95 % of control

COc1ccccc1NC(=O)O/N=C/c1ccccn1
inactive: dose: 100.0 mg/kg/injection, schedule: Q04DX003 (ip), vehicle: other 99 % of control | dose: 200.0 mg/kg/injection, schedule: Q04DX003 (ip), vehicle: other 90 % of control | dose: 400.0 mg/kg/injection, schedule: Q04DX003 (ip), vehicle: other 103 % of control

Nc1nc(N)c(N=O)c(Nc2ccc(I)cc2)n1
inactive: dose: 40.0 mg/kg/injection, schedule: Q01DX Z (ip), vehicle: carboxymethylcellulose (CMC) 102 % of control | dose: 50.0 mg/kg/injection, schedule: Q01DX009 (ip), vehicle: acetone 108 % of control | dose: 50.0 mg/kg/injection, schedule: Q04DX003 (ip), vehicle: carboxymethylcellulose (CMC) 109 % of control | dose: 60.0 mg/kg/injection, schedule: Q01DX Z (ip), vehicle: carboxymethylcellulose (CMC) 104 % of control | dose: 90.0 mg/kg/injection, schedule: Q01DX Z (ip), vehicle: carboxymethylcellulose (CMC) 88 % of control | dose: 100.0 mg/kg/injection, schedule: Q01DX001 (ip), vehicle: carboxymethylcellulose (CMC) 101 % of control | dose: 100.0 mg/kg/injection, schedule: Q01DX009 (ip), vehicle: acetone 106 % of control | dose: 100.0 mg/kg/injection, schedule: Q04DX003 (ip), vehicle: carboxymethylcellulose (CMC) 106 % of control | dose: 135.0 mg/kg/injection, schedule: Q01DX Z (ip), vehicle: carboxymethylcellulose (CMC) 89 % of control | dose: 200.0 mg/kg/injection, schedule: Q01DX001 (ip), vehicle: carboxymethylcellulose (CMC) 101 % of control | dose: 200.0 mg/kg/injection, schedule: Q04DX003 (ip), vehicle: carboxymethylcellulose (CMC) 96 % of control
